pKd: −log10 of the molar value.
Target: Steroid C26-monooxygenase (Mycobacterium tuberculosis, UniProt P9WPP1, C429L)
Assay: Binding affinity to Mycobacterium tuberculosis H37Rv CYP125A1 C429L mutant expressed in Escherichia coli by titration plot analysis

## CC1CCC(C(=O)NC(Cc2c[nH]c3ccccc23)C(=O)Nc2ccncc2)CC1 (stereo unspecified)
  pKd: 5.77

— ChEMBL document CHEMBL1641528, “Reverse type I inhibitor of Mycobacterium tuberculosis CYP125A1” (Bioorg Med Chem Lett, 2011)
